From ChEMBL document CHEMBL3045984, “Resistance to HPPD-inhibiting herbicides in a population of waterhemp (Amaranthus tuberculatus) from Illinois, United States” (2011)

What was measured:
Amaranthus tuberculatus [1] = experiment: Resistance ratio of GR50 for Amaranthus tuberculatus biotype MCR to GR50 for Amaranthus tuberculatus biotype WCS; format: functional
Amaranthus tuberculatus [2] = experiment: Resistance ratio of GR50 for Amaranthus tuberculatus biotype MCR to GR50 for Amaranthus tuberculatus biotype ACR; format: functional

CS(=O)(=O)c1ccc(C(=O)C2C(=O)CCCC2=O)c([N+](=O)[O-])c1 [MESOTRIONE]
Ratio (Amaranthus tuberculatus [1]): 35
Ratio (Amaranthus tuberculatus [2]): 10
